# Patent US4528369A, “20-Dihydro-20-deoxy-23-de(mycinosyloxy)tylosin” (Eli Lilly and Company, priority 1983, dated 1985)
# Entries after “also recorded” stand apart in the source; their conditions may differ. Where two headings read alike, the source gives them in different places.
# Experiments:
# [1] = tested on: pathogenic bacteria, especially gram-positive bacteria and Mycoplasma species; assay: Inhibition of growth of pathogenic bacteria (in words); type: cell-based
# Procedure: (§1) Tables II and III summarize the minimal inhibitory concentrations (MIC) at which 20-deoxo-DMOT and mycaminosyltylactone (as free bases) inhibit certain organisms. The MIC's in Table II were determined by standard agar-dilutionassays. The MIC's in Table III were obtained using a conventional broth-dilution microtiter test.
# [2] = tested on: Staphylococcus aureus X400; assay: MIC, standard agar-dilution assay (Table II); type: cell-based
# Procedure: as §1
# [3] = tested on: Streptococcus pyogenes C203; assay: MIC, standard agar-dilution assay (Table II); type: cell-based
# Procedure: as §1
# [4] = tested on: Streptococcus pneumoniae Park 1; assay: MIC, standard agar-dilution assay (Table II); type: cell-based; details: PARK1, free base, S. pneumoniae Park 1
# Procedure: as §1
# Escherichia coli EC14 = assay: MIC, standard agar-dilution assay (Table II); type: cell-based; details: free base, E. coli EC14
# Procedure: as §1
# [5] = tested on: Staphylococcus epidermidis EPI2; assay: MIC, standard agar-dilution assay (Table II); type: cell-based; details: free base, S. epidermidis EPI2
# Procedure: as §1
# [6] = tested on: Haemophilus influenzae 76; assay: MIC, standard agar-dilution assay (Table II); type: cell-based
# Procedure: as §1
# [7] = tested on: Staphylococcus aureus S13E; assay: MIC, standard agar-dilution assay (Table II); type: cell-based
# Procedure: as §1
# Shigella sonnei N9 = assay: MIC, standard agar-dilution assay (Table II); type: cell-based; details: free base
# Procedure: as §1
# Escherichia coli N10 = assay: MIC, standard agar-dilution assay (Table II); type: cell-based; details: free base, E. coli N10
# Procedure: as §1
# Escherichia coli TEM = assay: MIC, standard agar-dilution assay (Table II); type: cell-based
# Procedure: as §1
# [8] = tested on: Staphylococcus aureus V41; assay: MIC, standard agar-dilution assay (Table II); type: cell-based; details: free base, S. aureus V41
# Procedure: as §1
# [9] = tested on: Staphylococcus aureus NRRL B313; assay: MIC, standard agar-dilution assay (Table II); type: cell-based
# Procedure: as §1
# [10] = tested on: Staphylococcus epidermidis EPI1; assay: MIC, standard agar-dilution assay (Table II); type: cell-based; details: free base, S. epidermidis EPI1
# Procedure: as §1
# [11] = tested on: Streptococcus faecium ATCC 9790; assay: MIC, standard agar-dilution assay (Table II); type: cell-based; details: Enterococcus faecium, ATCC9790
# Procedure: as §1
# [12] = tested on: Haemophilus influenzae C.L.; assay: MIC, standard agar-dilution assay (Table II); type: cell-based
# Procedure: as §1
# [13] = tested on: Klebsiella pneumoniae X26; assay: MIC, standard agar-dilution assay (Table II); type: cell-based
# Procedure: as §1
# [14] = tested on: Klebsiella pneumoniae KAE; assay: MIC, standard agar-dilution assay (Table II); type: cell-based; details: free base, K. pneumoniae KAE
# Procedure: as §1
# [15] = tested on: Streptococcus sp. group D 9960; assay: MIC, standard agar-dilution assay (Table II); type: cell-based
# Procedure: as §1
# [16] = tested on: Pasteurella hemolytica 22C; assay: MIC, conventional broth-dilution microtiter test (Table III); type: cell-based; details: free base, P. hemolytica 22C
# Procedure: as §1
# Mycoplasma gallisepticum = assay: as above; type: cell-based; details: Mycoplasmoides gallisepticum, free base, M. gallisepticum
# Procedure: as §1
# Mycoplasma synoviae = assay: as above; type: cell-based; details: Mycoplasmopsis synoviae, free base, M. synoviae
# Procedure: as §1
# [17] = tested on: Pasteurella multocida 17E; assay: as above; type: cell-based; details: free base, P. multocida 17E, bovine isolate
# Procedure: as §1
# [18] = tested on: Pasteurella multocida 60A; assay: as above; type: cell-based; details: free base, P. multocida 60A, avian isolate
# Procedure: as §1
# Mycoplasma hyorhinis = assay: as above; type: cell-based; details: free base, M. hyorhinis
# Procedure: as §1
# Solubility = type: physicochemical; details: free base
structure (smiles),measurement,setting,value
"CCC1CC(C)C(=O)/C=C/C(C)=C/C(C)C(CC)OC(=O)CC(O)C(C)C1OC1OC(C)C(O)C(N(C)C)C1O (stereo not shown) [Mycaminosyltylactone, 5-O-mycaminosyltylactone]",antibacterial activity (in words),[1],"inhibit the growth of pathogenic bacteria, especially gram-positive bacteria and Mycoplasma species"
same,MIC,"[2]; free base, agar-dilution, S. aureus X400, read-out: MIC",32 µg/mL
same,MIC,"[3]; free base, agar-dilution, S. pyogenes C203, read-out: MIC",32 µg/mL
same,MIC,[4],4 µg/mL
same,MIC,Escherichia coli EC14,> 128 µg/mL
same,MIC,[5],16 µg/mL
same,MIC,"[6]; free base, agar-dilution, H. influenzae 76, read-out: MIC",16 µg/mL
same,MIC,[7],8 µg/mL
same,MIC,Shigella sonnei N9,> 128 µg/mL
same,MIC,Escherichia coli N10,> 128 µg/mL
same,MIC,Escherichia coli TEM,> 128 µg/mL
same,MIC,[8],16 µg/mL
same,MIC,"[9]; NRRLB313, free base, agar-dilution, S. aureus NRRL B313, read-out: MIC",16 µg/mL
same,MIC,[10],8 µg/mL
same,MIC,"[11]; free base, agar-dilution, S. faecium ATCC 9790, read-out: MIC",32 µg/mL
same,MIC,"[12]; free base, agar-dilution, H. influenzae C.L., read-out: MIC",16 µg/mL
same,MIC,"[13]; free base, agar-dilution, K. pneumoniae X26, read-out: MIC",8 µg/mL
same,MIC,[14],> 128 µg/mL
same,MIC,"[15]; free base, agar-dilution, Streptococcus sp. group D 9960, read-out: MIC",32 µg/mL
same,MIC,[16],25 µg/mL
same,MIC,Mycoplasma gallisepticum,1.56 µg/mL
same,MIC,Mycoplasma synoviae,12.5 µg/mL
same,MIC,[17],12.5 µg/mL
same,MIC,[18],12.5 µg/mL
same,MIC,Mycoplasma hyorhinis,50 µg/mL
"CCC1CC(C)C(=O)/C=C/C(C)=C/C(C)C(CC)OC(=O)CC(O)C(C)C1OC1OC(C)C(OC2CC(C)(O)C(O)C(C)O2)C(N(C)C)C1O (stereo not shown) [20-Deoxo-DMOT, 20-dihydro-20-deoxy-23-de(mycinosyloxy)tylosin]",antibacterial activity (in words),[1],"some antibacterial activity; also recorded: inhibit the growth of pathogenic bacteria, especially gram-positive bacteria and Mycoplasma species"
same,MIC,[2]; X400,128 µg/mL
same,MIC,[3]; C203,128 µg/mL
same,MIC,[4],64 µg/mL
same,MIC,Escherichia coli EC14,> 128 µg/mL
same,MIC,[5],64 µg/mL
same,MIC,[6]; 76,> 128 µg/mL
same,MIC,[7],64 µg/mL
same,MIC,Shigella sonnei N9,> 128 µg/mL
same,MIC,Escherichia coli N10,> 128 µg/mL
same,MIC,Escherichia coli TEM,> 128 µg/mL
same,MIC,[8],64 µg/mL
same,MIC,[9]; NRRLB313,128 µg/mL
same,MIC,[10],64 µg/mL
same,MIC,[11],> 128 µg/mL
same,MIC,[12],> 128 µg/mL
same,MIC,[13]; X26,> 128 µg/mL
same,MIC,[14],> 128 µg/mL
same,MIC,[15]; Streptococcus,> 128 µg/mL
same,MIC,[16],> 50 µg/mL
same,MIC,Mycoplasma gallisepticum,> 50 µg/mL
same,MIC,Mycoplasma synoviae,50 µg/mL
same,MIC,[17],> 50 µg/mL
same,MIC,[18],> 50 µg/mL
same,MIC,Mycoplasma hyorhinis,50 µg/mL
same,solubility in water,Solubility,slightly soluble in water
same,solubility in polar organic solvents,"Solubility; acetone, methanol, ethanol, chloroform, dimethylformamide and dimethyl sulfoxide","soluble in most polar organic solvents such as acetone, methanol, ethanol, chloroform, dimethylformamide and dimethyl sulfoxide"
